Patent publication US20120165384A1, “INHIBITION OF HISTONE ACETYLTRANSFERASES BY CTK7A AND METHODS THEREOF” (JAWAHARLAL NEHRU CENTRE FOR ADVANCED SCIENTIFIC RESEARCH, priority 2009, published 2012)

Experiments:
CBP = molecular target: T1, CBP (Homo sapiens, UniProt Q92793); assay: HAT assay with recombinant CBP; assay type: biochemical
T1 construct: Recombinant baculovirus expressing full-length FLAG-tagged CARM1,CBP and PCAF; FLAG; made in house; host or cells: baculovirus-infected Sf21 cells
Protocol: (§1) Recombinant baculovirus expressing full-length FLAG-tagged CARM1,CBP and PCAF were purified by immunoaffinity chromatography using M2-agarose beads followed by elution with FLAG peptide. Baculovirus-expressed full-length hexahistidine-tagged p300, and G9a were purified using Ni-NTA affinity chromatography as described previously^30.
(§2) HAT gel fluorography/autoradiography assays were performed as previously reported^30. Kinetic analysis of p300 HAT inhibition was performed as reported earlier^31 in the presence of (0, 30 and 50 μM) CTK7A. The obtained values were plotted as a lineweaver burk plot using Graphpad Prism software. For p300 Autoacetylation assay, reactions of p300 full length (80 ng) were carried out in HAT assay buffer at 30° C. for 10 minutes with or without the protein (NPM1) followed by addition of 1 μl of 4.7 Ci/mmol [^3H] acetyl CoA (NEN-PerkinElmer) and were further incubated for another 10 min in a 30 μl reaction. GAPDH was used as positive control. The radio-labeled acetylated p300 were processed by fluorography followed by autoradiography.

G9a = molecular target: T2, G9a (Homo sapiens, UniProt Q96KQ7); assay: Histone methyltransferase (HMTase) assay, G9a; assay type: biochemical; details: even at 100 μM
T2 construct: hexahistidine; made in house; host or cells: baculovirus-infected Sf21 cells
T2 sequence (Q96KQ7 1-1210): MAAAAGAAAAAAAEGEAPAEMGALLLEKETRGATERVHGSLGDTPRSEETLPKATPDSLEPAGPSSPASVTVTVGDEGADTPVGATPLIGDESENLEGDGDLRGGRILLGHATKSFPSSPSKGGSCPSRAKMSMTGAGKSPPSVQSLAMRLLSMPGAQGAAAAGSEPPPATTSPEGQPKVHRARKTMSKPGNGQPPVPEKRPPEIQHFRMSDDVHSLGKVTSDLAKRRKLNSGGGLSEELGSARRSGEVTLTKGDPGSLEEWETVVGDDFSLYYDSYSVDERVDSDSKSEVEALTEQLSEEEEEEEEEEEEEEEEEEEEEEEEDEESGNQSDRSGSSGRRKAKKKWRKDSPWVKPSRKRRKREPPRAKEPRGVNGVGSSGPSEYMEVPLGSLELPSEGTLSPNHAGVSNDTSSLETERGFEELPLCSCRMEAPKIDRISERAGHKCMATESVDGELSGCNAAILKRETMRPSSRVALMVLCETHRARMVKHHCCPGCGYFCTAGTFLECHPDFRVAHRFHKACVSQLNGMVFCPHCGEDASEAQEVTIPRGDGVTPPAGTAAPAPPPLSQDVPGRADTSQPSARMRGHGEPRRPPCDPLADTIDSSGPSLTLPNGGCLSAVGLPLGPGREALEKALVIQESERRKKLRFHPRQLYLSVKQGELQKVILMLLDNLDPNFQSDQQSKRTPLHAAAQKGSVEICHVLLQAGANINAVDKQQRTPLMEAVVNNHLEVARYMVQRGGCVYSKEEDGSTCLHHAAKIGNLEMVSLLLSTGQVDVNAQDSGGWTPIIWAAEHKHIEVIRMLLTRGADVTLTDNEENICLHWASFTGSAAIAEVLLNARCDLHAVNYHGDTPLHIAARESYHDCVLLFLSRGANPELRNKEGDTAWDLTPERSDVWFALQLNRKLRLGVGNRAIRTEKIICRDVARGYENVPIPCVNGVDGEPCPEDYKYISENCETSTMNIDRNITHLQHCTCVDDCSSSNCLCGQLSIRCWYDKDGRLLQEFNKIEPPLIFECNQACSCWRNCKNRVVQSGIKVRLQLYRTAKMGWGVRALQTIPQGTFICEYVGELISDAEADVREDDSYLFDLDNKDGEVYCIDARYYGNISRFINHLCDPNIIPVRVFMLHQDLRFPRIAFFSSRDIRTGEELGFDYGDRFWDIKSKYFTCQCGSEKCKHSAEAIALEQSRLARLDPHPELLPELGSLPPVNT
Protocol: as §1
The deacetylation assay was performed as per standard protocol^31. For SirT2 deacetylase assay, 50 ng of bacterially expressed, recombinant enzyme was added in the presence or absence of cofactor NAD^+. HMTase was performed as reported earlier^31.

full length p300 = molecular target: T3, full length p300 (Homo sapiens, UniProt Q09472); assay: p300 autoacetylation assay in vitro (3H-acetyl CoA, fluorography/autoradiography); assay type: biochemical; details: in vitro, concentration dependent
T3 construct: hexahistidine; made in house; host or cells: baculovirus-infected Sf21 cells
T3 sequence (Q09472 whole entry, species assumed): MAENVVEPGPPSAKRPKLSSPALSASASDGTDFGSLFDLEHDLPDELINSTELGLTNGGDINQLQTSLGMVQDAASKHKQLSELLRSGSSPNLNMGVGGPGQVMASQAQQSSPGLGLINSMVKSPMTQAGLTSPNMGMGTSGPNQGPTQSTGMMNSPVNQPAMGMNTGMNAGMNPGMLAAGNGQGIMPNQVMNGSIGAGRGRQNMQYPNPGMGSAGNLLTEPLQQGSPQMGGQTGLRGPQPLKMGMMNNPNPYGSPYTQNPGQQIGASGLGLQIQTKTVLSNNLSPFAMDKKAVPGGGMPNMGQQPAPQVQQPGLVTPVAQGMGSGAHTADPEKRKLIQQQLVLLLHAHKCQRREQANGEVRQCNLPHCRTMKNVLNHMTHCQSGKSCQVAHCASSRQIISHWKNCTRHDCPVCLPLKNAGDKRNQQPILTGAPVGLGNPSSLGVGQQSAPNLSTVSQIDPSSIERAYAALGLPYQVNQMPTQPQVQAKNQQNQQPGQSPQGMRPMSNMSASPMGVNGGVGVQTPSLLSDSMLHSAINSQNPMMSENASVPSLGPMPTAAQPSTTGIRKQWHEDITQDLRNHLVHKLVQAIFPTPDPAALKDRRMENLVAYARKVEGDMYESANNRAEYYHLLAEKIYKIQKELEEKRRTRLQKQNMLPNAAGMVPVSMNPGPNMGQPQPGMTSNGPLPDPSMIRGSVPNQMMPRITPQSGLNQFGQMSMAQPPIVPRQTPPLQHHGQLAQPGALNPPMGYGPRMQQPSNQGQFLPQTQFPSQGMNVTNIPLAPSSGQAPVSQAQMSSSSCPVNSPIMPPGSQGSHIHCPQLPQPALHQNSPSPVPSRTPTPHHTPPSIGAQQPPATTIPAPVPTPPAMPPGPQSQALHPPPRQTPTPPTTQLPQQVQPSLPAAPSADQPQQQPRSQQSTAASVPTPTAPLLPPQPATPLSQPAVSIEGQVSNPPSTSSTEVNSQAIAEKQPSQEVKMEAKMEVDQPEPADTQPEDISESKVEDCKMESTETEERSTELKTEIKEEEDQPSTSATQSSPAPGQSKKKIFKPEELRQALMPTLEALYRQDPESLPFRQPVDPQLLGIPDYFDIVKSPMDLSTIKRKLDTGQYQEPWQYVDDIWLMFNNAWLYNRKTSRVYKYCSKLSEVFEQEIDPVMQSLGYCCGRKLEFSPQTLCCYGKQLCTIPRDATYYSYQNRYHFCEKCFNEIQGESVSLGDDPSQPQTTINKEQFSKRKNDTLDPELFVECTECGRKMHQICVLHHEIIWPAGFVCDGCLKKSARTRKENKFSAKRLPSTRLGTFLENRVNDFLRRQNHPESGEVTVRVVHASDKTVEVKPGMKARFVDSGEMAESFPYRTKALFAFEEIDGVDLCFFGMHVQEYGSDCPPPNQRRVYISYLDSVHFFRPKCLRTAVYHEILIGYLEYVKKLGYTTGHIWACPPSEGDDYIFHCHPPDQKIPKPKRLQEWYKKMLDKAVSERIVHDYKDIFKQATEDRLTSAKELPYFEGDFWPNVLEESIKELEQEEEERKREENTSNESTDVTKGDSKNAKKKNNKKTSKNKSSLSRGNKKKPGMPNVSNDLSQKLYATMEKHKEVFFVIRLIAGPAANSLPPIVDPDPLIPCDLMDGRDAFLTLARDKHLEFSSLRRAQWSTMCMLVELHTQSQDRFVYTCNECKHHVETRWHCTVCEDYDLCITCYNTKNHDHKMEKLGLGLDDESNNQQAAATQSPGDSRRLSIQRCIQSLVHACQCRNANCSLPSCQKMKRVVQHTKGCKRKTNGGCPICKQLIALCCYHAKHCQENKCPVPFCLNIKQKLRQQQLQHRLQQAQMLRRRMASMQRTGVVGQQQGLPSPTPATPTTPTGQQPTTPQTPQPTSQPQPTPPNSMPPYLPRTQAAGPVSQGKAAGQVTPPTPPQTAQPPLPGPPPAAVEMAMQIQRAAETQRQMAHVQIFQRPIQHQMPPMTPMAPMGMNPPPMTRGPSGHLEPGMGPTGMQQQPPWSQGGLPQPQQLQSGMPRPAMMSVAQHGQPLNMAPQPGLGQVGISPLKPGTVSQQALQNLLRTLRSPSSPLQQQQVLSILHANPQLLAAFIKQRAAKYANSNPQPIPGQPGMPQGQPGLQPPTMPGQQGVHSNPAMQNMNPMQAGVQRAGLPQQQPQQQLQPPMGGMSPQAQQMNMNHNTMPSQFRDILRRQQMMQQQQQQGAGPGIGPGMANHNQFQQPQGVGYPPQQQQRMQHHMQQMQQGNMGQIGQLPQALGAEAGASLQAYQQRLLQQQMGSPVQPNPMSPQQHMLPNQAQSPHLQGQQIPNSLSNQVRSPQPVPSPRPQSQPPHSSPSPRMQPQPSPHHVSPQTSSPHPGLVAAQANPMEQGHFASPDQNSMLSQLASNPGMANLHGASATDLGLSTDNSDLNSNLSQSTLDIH
Protocol: as §2

PCAF = molecular target: T4, PCAF (Homo sapiens, UniProt Q92831); assay: PCAF autoacetylation assay in vitro; assay type: biochemical; details: concentration dependent
T4 construct: Recombinant baculovirus expressing full-length FLAG-tagged CARM1,CBP and PCAF; FLAG; made in house; host or cells: baculovirus-infected Sf21 cells
T4 sequence (Q92831 whole entry, species assumed): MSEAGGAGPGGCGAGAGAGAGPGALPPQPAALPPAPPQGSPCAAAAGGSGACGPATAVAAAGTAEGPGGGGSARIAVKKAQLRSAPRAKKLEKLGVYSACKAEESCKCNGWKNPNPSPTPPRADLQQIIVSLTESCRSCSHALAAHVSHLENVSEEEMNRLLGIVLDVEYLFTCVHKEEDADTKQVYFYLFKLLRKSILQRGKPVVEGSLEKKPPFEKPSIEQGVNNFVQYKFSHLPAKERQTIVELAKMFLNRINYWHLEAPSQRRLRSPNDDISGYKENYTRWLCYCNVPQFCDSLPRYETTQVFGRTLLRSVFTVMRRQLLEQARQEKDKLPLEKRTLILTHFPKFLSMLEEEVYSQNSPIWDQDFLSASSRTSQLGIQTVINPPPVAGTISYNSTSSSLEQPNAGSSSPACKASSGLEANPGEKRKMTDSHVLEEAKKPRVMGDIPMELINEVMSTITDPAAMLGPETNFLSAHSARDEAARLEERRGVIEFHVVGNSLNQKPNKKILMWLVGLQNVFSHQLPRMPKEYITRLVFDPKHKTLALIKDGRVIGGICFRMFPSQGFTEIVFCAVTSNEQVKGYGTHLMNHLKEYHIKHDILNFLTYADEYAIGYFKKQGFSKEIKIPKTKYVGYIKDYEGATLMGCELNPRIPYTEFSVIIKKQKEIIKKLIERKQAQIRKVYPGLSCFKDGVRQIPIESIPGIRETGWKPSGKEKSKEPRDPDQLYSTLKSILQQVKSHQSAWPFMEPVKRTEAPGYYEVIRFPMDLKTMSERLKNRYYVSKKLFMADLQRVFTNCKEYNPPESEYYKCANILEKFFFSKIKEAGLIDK

KB cells = assay: Senescence-associated β-gal (SA-β-gal) activity analysis; assay type: cell-based
Protocol: SA-β-gal activity was analyzed in KB cells as described earlier^47.

KB cell xenografts = assay: Xenograft growth assay; assay type: in vivo, nude mice (BALB/c); details: i.p. 100 mg/kg body weight/twice a day; p<0.05
Protocol: Animal experiments were performed with the approval by authorized ethics Committee. Sixteen nude mice (BALB/c) were included in the experiments (10 male and 6 female mice). Mice were kept in isolators in a pathogen free environment. All nude mice were 3-4 weeks old at the start of the experiments. KB cells, 2×10^6 cells were inoculated in each mice in the right and left flanks, respectively. Mice were then divided in two groups (5 males and 3 females) in each group. After the tumors grown to palpable in size, CTK7A treatment were given intraperitoneally (i.p) with 100 mg/kg body weight/twice a day. Tumors were measured once in three days with a caliper and their volumes were calculated by the formula: 0.52×D1×(D2)^2, where ‘D1’ and ‘D2’ are, respectively, the longest and shortest dimension. The last dose of the compound (CTK7A) was administered four hour before sacrificing it. Tumors were removed and put into liquid nitrogen or were fixed in 10% formalin for 1-2 h to make blocks to be used for IHC. For comparing tumor sizes between treated and control one-way ANOVA was performed using “Sigmaplot Software”. P-value<0.05 was considered as statistically significant.

p300 = p300 (Homo sapiens, UniProt Q09472); assay: HAT assay with recombinant p300; assay type: biochemical; set-up: hexahistidine; made in house; host or cells: baculovirus-infected Sf21 cells
p300, sequence (Q09472 whole entry, species assumed): as the sequence (Q09472 whole entry, species assumed) above
Protocol: as §1, §2

COc1cc([O-])cc(C=CC2=NN(c3ccc(C(=O)[O-])cc3)C(C=Cc3cc([O-])cc(OC)c3)C2)c1.[Na+].[Na+].[Na+] (centres unmarked) [CTK7A, Sodium 4-(3,5-bis(3-methoxy-5-oxidostyryl)-4,5dihydro-1H-pyrazole-1-yl)benzoate]
inhibition of CBP HAT activity (CBP): inhibit | effect on G9a activity (G9a): unaffected | inhibition of p300 autoacetylation (full length p300): inhibit | inhibition of PCAF autoacetylation (PCAF): inhibit | expression of senescence associated beta-galactosidase (SA-β-gal) (KB cells): induced | KB cell tumors smaller than in control untreated mice (KB cell xenografts): 50% | inhibition of p300 HAT activity (p300): inhibit | type of inhibition pattern for p300 (p300; both substrates, acetyl-coA and core histone, 0, 30 and 50 μM): non-competitive
